Measurements from US12172007B2, “Combination therapy of electric fields and an additional treatment for cancer and imaging” (University of Cincinnati, priority 2019, dated 2024).

Legend:
[1] = Relaxivity of contrast agent at 7 T; assay type: physicochemical
Description: The use of a paramagnetic gadolinium chelate-loaded SapC-DOPS (Gd-DTPA-BSA/SapC-DOPS) vesicles as a targeted contrast agent for imaging glioblastoma multiforme tumors are also useful in the present invention. Gd-DTPA-BSA/SapC-DOPS vesicles and Gd-DTPA display a similar relaxivity of 3.32 and 2.80 (s·mM)−1, respectively, at 7 T. According to the in vivo experiments, the R1 values of the tumor before injection of Gd-DTPA-BSA/SapC-DOPS vesicles, sham injected brain, and contralateral normal brain were 0.4676±0.010 s−1, 0.5216±0.034 s−1, and 0.5596±0.003 s−1, respectively. […] At 24 h postinjection, the tumor R1 remained elevated (7.9±1.5%, P<0.05) compared with the normal and sham brains, but it was statistically similar to the controls (4.7±2.0%, p>0.05). […] At 4 h, 10 h, and 20 h, the increase in T1 relaxation time is higher in the sham normal brain compared with sham tumor. By 24 h postinjection, the T1-weighted signal is similar in both tissues.

[2] = tested on: HER2-negative breast cancer; settings: phase I, cited from earlier work
[3] = tested on: non-small cell lung cancer (NSCLC); settings: cited from earlier work

Row | relaxivity [1] [s/mM] | Molecule | overall response rate ([2]; with paclitaxel as adjuvant therapy) [%] | tolerability ([2]; with paclitaxel) | overall survival, Bavituximab + docetaxel versus docetaxel alone ([3]; advanced, previously treated NSCLC, phase III) | overall survival versus placebo-treated patients ([3]; patients pre-treated with immune checkpoint inhibitors)
1 | 2.80 | O=C([O-])CN(CCN(CC(=O)[O-])CC(=O)O)CCN(CC(=O)[O-])CC(=O)O.[Gd+3] [Gd-DTPA] |  |  |  | 
2 |  | Bavituximab: chimeric monoclonal antibody that binds to PS | 85 | well tolerated | no significant difference | increased overall survival
